Reference: patent US8324268B2, “Substituted furancarboxamides, and use thereof” (AiCuris GmbH & Co. KG, priority 2008, dated 2012)

Assays:
Assay type in all cases: cell-based
HIV-1NL4-3 wt = test: Light assay with wild-type HI reporter virus in MT4 7F2 cells; conditions: Human immunodeficiency virus 1, 2% FCS
Method: (§1) For the mixture for a 96-well MTP, 3 million MT4 7F2 cells are pelleted, suspended in 1 ml of RPMI 1640 medium without phenol red (Invitrogen, Karlsruhe, Germany)/10% FCS/10% AIM-V (Invitrogen, Karlsruhe, Germany) and incubated together with a suitable amount of the corresponding HIV-1NL4-3 reporter virus at 37° C. for 2 hours (pellet infection). Unadsorbed viruses are subsequently washed out with PBS, and the infected cells are pelleted again and suspended in 8 ml of RPMI 1640 medium without phenol red/2% or 10% FCS/10% AIM-V. 80 μl thereof are pipetted into each well of a white 96-well MTP with 20 μl of test substance in suitable dilution. To avoid edge effects, the wells on the edge of the MTP are not used for substance dilutions. The second vertical row of the MTP contains only infected cells (virus control) and the eleventh vertical row only uninfected cells (cell control), in each case in RPMI 1640 medium without phenol red/2% or 10% FCS/10% AIM-V. The other wells of the MTP contain the compounds of the invention in various concentrations starting from the third vertical row, from which the test substances are diluted in 3-fold steps up to the tenth vertical row 3^7-fold. The test substances are dissolved in DMSO, whereby the final DMSO concentration in the test mixture is 1%. The test mixtures are incubated at 37° C./5% CO2 for five days and, after the addition of 15 μl of Lu164 substrate (5 mg/ml coelenterazine dissolved in 30 μM glutathione/DMSO, 100 mM NaCl, 1M MES, 100 mM glutathione), evaluated by luminometry. The resulting values are in the region of 1 000 000 RLUs (relative light units) for the virus control and 300 to 400 RLUs for the cell control. The EC50 values of the test substances are determined as the concentration at which the virus replication measured in RLUs is 50% of the untreated infected cells.

HIV-1NL4-3 K103N-Y181C = test: Light assay with inhibitor-resistant HI reporter virus in MT4 7F2 cells; conditions: Human immunodeficiency virus 1, read-out: EC50 (nM) MT4 7F2 cells HIV-1NL4-3 K103N-Y181C 2% FCS
Method: as §1

HIV-1LAI = test: H9 assay with wild-type HIV-1 (HIV-1LAI supernatant infection, AlamarBlue); conditions: Human immunodeficiency virus 1, H9 cells, 10% FCS
Method: For the mixture for a 96-well MTP, 3 million PBLs are pelleted, suspended in 1 ml of RPMI 1640 medium/10% FCS and incubated together with a suitable amount of HIV-1LAI (NIH AIDS Research & Reference Reagent Program, Germantown, USA) at 37° C. for 2 hours (pellet infection). Unadsorbed viruses are subsequently washed out with PBS, and the infected cells are pelleted again and suspended in 18 ml of RPMI 1640 medium/10% FCS/interleukin-2 (40 U/ml). 180 μl thereof are pipetted into each well of a white 96-well MTP with 20 μl of test substance in suitable dilution. Alternatively, after preparation of the substance dilutions in the MTP, the HIV is pipetted in together with the cells and is not washed out again (supernatant infection). In order to avoid edge effects, the wells at the edge of the MTP are not used for substance dilutions. The second vertical row of the MTP contains only infected cells (virus control) and the eleventh vertical row only uninfected cells (cell control), in each case in RPMI 1640 medium/10% FCS/interleukin-2 (40 U/ml). The other wells of the MTP contain the compounds of the invention in various concentrations starting from the third vertical row, from which the test substances are diluted in 3-fold steps up to the tenth vertical row 3^7-fold. The test substances are dissolved in DMSO, whereby the final DMSO concentration in the test mixture is 1%. The test mixtures are incubated at 37° C./5% CO2. After 5 and 7 days, 50 μl of cell-free supernatant are removed from each well to determine the amount of p24 present by means of a p24 ELISA (HIV-1 p24^CA Antigen Capture Assay Kit, NCI-Frederick Cancer Research and Development Center, Frederick, USA). From the resulting values of the photometric evaluation (450/620 nm) the EC50 values of the test substances are determined as the concentration at which the amount of p24 is 50% of the untreated infected cells.
Alternatively, H9 cells (ATCC, Wesel, Germany) are employed instead of PBLs for testing the test substances. H9 cells are incubated in RPMI 1640 medium with 2% or 10% FCS as a HIV-ILAI supernatant infection at 37° C./5% CO2, (20 μl of substance dilution and 80 μl of cells/virus per well) in accordance with the pattern described above for 5 days. Subsequently, 10 μl of AlamarBlue® (Invitrogen, Karlsruhe, Germany) are added to each well, and the MTPs are incubated at 37° C. for 3 hours before the fluorimetric evaluation takes place (544/590 nm). The resulting values are about 40 000 for the untreated uninfected cells and about 7000 for the untreated infected cells. In the low concentration range, the EC50 values of the test substances are determined as the concentration at which the fluorescence is 50% of the untreated uninfected cells (in each case subtracting the values of the untreated infected cells). In addition, in the high concentration range, the CC50 values of the test substances are determined as the concentration at which the fluorescence is 50% of the untreated uninfected cells (in each case subtracting the values of the untreated infected cells).

Row | SMILES | EC50 (HIV-1NL4-3 wt) [nM] | EC50 (HIV-1NL4-3 K103N-Y181C) [nM] | EC50 (HIV-1LAI) [nM]
1 | N#Cc1cc(-c2oc(C(=O)N3CNC(=O)C3)cc2-c2cc(F)cc(Cl)c2)ccc1F [Example 23, 5-{3-(3-Chloro-5-fluorophenyl)-5-[(4-oxoimidazolidin-1-yl)carbonyl]furan-2-yl}-2-fluorobenzenecarbonitrile] | 2 | 100 | 18
2 | N#Cc1cccc(-c2oc(C(=O)N3CCS(=O)(=O)C3)cc2-c2cc(F)cc(Cl)c2)c1 [Example 5, 3-{3-(3-Chloro-5-fluorophenyl)-5-[(1,1-dioxido-1,3-thiazolidin-3-yl)carbonyl]furan-2-yl}benzenecarbonitrile] | < 1.5 | 305 | 17.5
3 | Cc1cccc(-c2oc(C(=O)N3CCNC(=O)C3)cc2-c2cccc(Cl)c2)c1 [Example 18, 4-{[4-(3-Chlorophenyl)-5-(3-methylphenyl)furan-2-yl]carbonyl}piperazin-2-one] | 45 | 300 | 200
4 | N#Cc1cccc(-c2oc(C(=O)N3CCNC(=O)C3)cc2-c2cccc(Cl)c2)c1 [Example 20, 3-{3-(3-Chlorophenol)-5-[(3-oxopiperazin-1-yl)carbonyl]furan-2-yl}benzenecarbonitrile] | 2 | 137 | 50
5 | N#Cc1cc(F)cc(-c2cc(C(=O)N3CCNC(=O)C3)oc2-c2cccc(Cl)c2)c1 [Example 33, 3-{2-(3-Chlorophenyl)-5-[(3-oxopiperazin-1-yl)carbonyl]furan-3-yl}-5-fluorobenzenecarbonitrile] | < 1.5 | 200 | 25
6 | O=C1CN(C(=O)c2cc(-c3cccc(Cl)c3)c(-c3ccc(F)c(Cl)c3)o2)CCN1 [Example 22, 4-{[5-(3-Chloro-4-fluorophenyl)-4-(3-chlorophenyl)furan-2-yl]carbonyl}piperazin-2-one] | 7 | 185 | 113
7 | O=C1CN(C(=O)c2cc(-c3cc(F)cc(F)c3)c(-c3cccc(Cl)c3)o2)CN1 [Example 15, 1-{[5-(3-Chlorophenyl-1)-4-(3,5-difluorophenyl)furan-2-yl]carbonyl}imidazolidin-4-one] | 9 | 350 | 110
8 | O=C1CN(C(=O)c2cc(-c3cc(F)cc(Cl)c3)c(-c3cccc(Cl)c3)o2)CCN1 [Example 14, 4-{[4-(3-Chloro-5-fluorophenyl)-5-(3-chlorophenyl)furan-2-yl]carbonyl}piperazin-2-one] | 1 | 173 | 52
9 | O=C1CN(C(=O)c2cc(-c3cccc(Cl)c3)c(-c3ccc(F)c(F)c3)o2)CCN1 [Example 19, 4-{[4-(3-Chlorophenyl)-5-(3,4-difluorophenyl)furan-2-yl]carbonyl}piperazin-2-one] | 43 | 450 | 250
10 | Cc1cc(-c2oc(C(=O)N3CCNC(=O)C3)cc2-c2cccc(Cl)c2)ccc1F [Example 21, 4-{[4-(3-Chlorophenyl)-5-(4-fluor-3-methylphenyl)furan-2-yl]carbonyl}piperazin-2-one] | 15 | 120 | 200
11 | COc1cccc(-c2cc(C(=O)N3CCNC(=O)C3)oc2-c2cccc(Cl)c2)c1 [Example 29, 4-{[5-(3-Chlorophenyl)-4-(3-methoxyphenyl)furan-2-yl]carbonyl}piperazin-2-one] | 53 | 400 | 450
12 | N#Cc1cc(-c2oc(C(=O)N3CCNC(=O)C3)cc2-c2cccc(Cl)c2)ccc1F [Example 24, 5-{3-(3-Chlorophenol)-5-[(3-oxopiperazin-1-yl)carbonyl]furan-2-yl}-2-fluorobenzenecarbonitrile] | 4 | 320 | 47
13 | Cc1cc(C)cc(-c2cc(C(=O)N3CCNC(=O)C3)oc2-c2cccc(Cl)c2)c1 [Example 28, 4-{[5-(3-Chlorophenyl)-4-(3,5-dimethylphenyl)furan-2-yl]carbonyl}piperazin-2-one] | 30 | 400 | 200
